According to PMC8212708 (Clinical and Translational Science, 2021):

Molecular target: T1, human glucose transporter-1 (hGLUT-1) (Homo sapiens, UniProt P11166)
T1 sequence (P11166 1-492): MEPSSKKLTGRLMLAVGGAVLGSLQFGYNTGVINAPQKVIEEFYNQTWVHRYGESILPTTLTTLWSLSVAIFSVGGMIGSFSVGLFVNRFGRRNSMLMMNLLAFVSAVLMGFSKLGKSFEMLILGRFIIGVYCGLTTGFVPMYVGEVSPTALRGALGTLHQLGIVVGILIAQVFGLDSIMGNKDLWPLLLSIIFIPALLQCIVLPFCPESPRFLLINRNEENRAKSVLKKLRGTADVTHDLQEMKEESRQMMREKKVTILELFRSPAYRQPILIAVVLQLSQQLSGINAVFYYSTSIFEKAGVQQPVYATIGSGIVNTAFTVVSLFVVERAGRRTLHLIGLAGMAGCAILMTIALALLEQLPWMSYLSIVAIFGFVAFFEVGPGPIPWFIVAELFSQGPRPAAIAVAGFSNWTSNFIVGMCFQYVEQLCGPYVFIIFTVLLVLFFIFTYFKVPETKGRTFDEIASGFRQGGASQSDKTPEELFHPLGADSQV
Experiment: inhibition of [3H]2-DG
Format: cell-based
Conditions: FaDu, read-out: % inhibition at 25 μM

| inhibition at 25 µM [%] | SMILES |
| --- | --- |
| > 50 | O=c1c(-c2ccc(O)cc2)coc2cc(O)cc(O)c12 [genistein] |
| 80 to 90 | C#Cc1cccc(Nc2ncnc3cc(OC)c(OCCCCCCC(=O)NO)cc23)c1 [CUDC-101] |
| > 50 | CC(C)c1cc(-c2n[nH]c(=O)n2-c2ccc3c(ccn3C)c2)c(O)cc1O [Ganetespib] |
